Target: T1, DHS (deoxyhypusine synthase) from Ixodes ricinus (Ixodes ricinus, UniProt A0A0K8RJK0)
T1 construct: cDNA from salivary gland RNA; pET-28a(+) N-terminal His tag/thrombin/T7 tag, removal not mentioned; E. coli BL21(DE3), Ni-NTA native purification
T1 sequence (A0A0K8RJK0 1-365): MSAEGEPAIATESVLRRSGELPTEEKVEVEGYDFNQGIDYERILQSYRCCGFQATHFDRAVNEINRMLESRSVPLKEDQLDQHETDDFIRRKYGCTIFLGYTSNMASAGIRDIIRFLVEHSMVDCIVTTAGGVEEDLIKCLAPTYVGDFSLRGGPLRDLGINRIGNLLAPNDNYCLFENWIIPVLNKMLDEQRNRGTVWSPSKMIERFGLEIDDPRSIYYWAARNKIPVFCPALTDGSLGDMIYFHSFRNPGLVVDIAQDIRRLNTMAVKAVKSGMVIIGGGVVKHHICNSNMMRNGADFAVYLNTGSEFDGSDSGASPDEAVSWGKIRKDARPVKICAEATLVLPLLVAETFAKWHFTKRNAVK
Experiment: DHS activity assay, GC/MS detection of deoxyhypusine
Assay type: biochemical
Conditions: 2.1 mM spermidine, co-substrate human eIF5A precursor 40 μg, 3 mM NAD, glycine NaOH buffer, 37 °C, 1 h; specific activity only

In the case of `NCCCCNCCCN` [spermidine], the “DHS activity assay, GC/MS detection of deoxyhypusine” value is reported as “No DHS activity was detected in control experiments without either the precursor protein”.
